In patent publication US20240082463A1, “COATED MEDICAL PRODUCT” (HEMOTEQ AG, priority 2020, published 2024):

Tests used:
[1] = Preparation and stability of crystal suspensions of microcrystalline paclitaxel with solutions of different tri-O-acylglycerols; conditions: 100 h and temperature elevation to 50° C.
Description: In the first step, solutions of tri-O-acylglycerols were first prepared in a solvent mixture. Subsequently, the solutions were combined with microcrystals of paclitaxel to investigate which tri-O-acylglycerols could be used to obtain stable crystal suspensions. […] For the preparation of the solutions, an ethyl acetate/heptane solvent mixture was used here as an example.
To prepare the solutions, the respective tri-O-acylglycerol was first dissolved in a polar organic solvent and then a non-polar solvent was added.
To prepare the solutions, 770 mg of the respective tri-O-acylglycerol were dissolved in 14 g ethyl acetate (15.6 mL). Then, 57.4 g of n-heptane (84.4 mL) was added.
Subsequently, homogenization and filtration were performed. The total volume of the solvent mixture is 100 mL.
To a precisely weighed amount of dry microcrystals of the previously prepared paclitaxel, a defined amount of the solutions containing tri-O-acylglycerol and optionally antioxidant is carefully added.
To check whether crystal suspension can be prepared, to each 200 mg of paclitaxel in the form of microcrystals were carefully added 10 mL of one of the solutions 1a) to 1j) at room temperature. Six mixtures of 10 mL of solution for each solution were prepared. After combining, it was tested whether the microcrystals of paclitaxel dissolved directly in the solutions.
To evaluate the crystal size, particle size distribution (i.e., crystal size distribution), and shape of the crystals, a sample was taken with a Pasteur pipette in each case and a drop was placed on the slide of the SEM sample plate. SEM images were taken at 200× and 1000× magnification for evaluation.
To evaluate the crystal size, particle size distribution (i.e., crystal size distribution), and shape of the crystals, one sample was taken from each using a Pasteur pipette and one drop was placed on the foil of the SEM sample plate. An additional sample was taken from the sediment and one drop was placed on the slide of the SEM sample plate. SEM images were taken at 200× and 1000× magnification for evaluation. SEM images were taken at 200 and 1000× magnification for evaluation.
To prepare the solutions, 770 mg of the respective tri-O-acylglycerol were dissolved in 14 g ethyl acetate (15.6 mL). Then, 57.4 g of n-heptane (84.4 mL) was added. Subsequently, homogenization and filtration were performed. The total volume of the solvent mixture is 100 mL.
Three mixtures of 10 mL of solution for each solution were prepared. After combining, it was tested whether the microcrystals dissolved directly in these solutions.

[2] = cited from earlier work
[3] = Crystal suspensions of microcrystalline paclitaxel with different proportions of tri-O-acylglycerol; format: physicochemical; conditions: tri-O-acylglycerol:paclitaxel 20:80, after 100 h
Experimental: For this purpose, further investigation was carried out using solutions of trioctanoylglycerol or tridecanoylglycerol with different proportions of tri-O-acylglycerol to find out the optimum mass ratio of tri-O-acylglycerol to microcrystalline paclitaxel. To prepare the solutions, the appropriate amount of each tri-O-acylglycerol was dissolved in 14 g ethyl acetate (15.6 mL). […] Subsequently, homogenization and filtration were performed.

[4] = Uniformity of coating and recovery rate of active agent on coated balloon catheters
Description: Balloon catheters 4×40 mm were coated with a 2% PTX suspension containing trioctanoylglycerol (20 wt % based on PTX) using a droplet dosing technique in a microdosing method such as the pipetting method, or droplet dragging method. […] The studies on the recovery rate of active agent on balloon catheters divided into equally sized segments confirm the uniformity of the coating and thus the success in using a crystal suspension as well as a 100% recovery rate
Balloon catheters 4×40 mm were each coated with a 2% PTX suspension containing tridodecanoylglycerol or tritetradecanoylglycerol (20 wt % based on PTX) using a drop dosing technique in a micro dosing method such as the pipetting method or drop dragging method.
For this purpose, the coated weighed balloon is fixed and inflated. The balloon is then cut with a scalpel into pieces of as equal size as possible, e.g. a 40 mm long balloon into 4 pieces, a 120 mm long balloon can be divided into 6 pieces. First, cut the balloon in half lengthwise and measure the layer thickness with a micrometer. Then the balloon is divided and the pieces are weighed and also the layer thicknesses are measured with the micrometer.
The coatings are each dissolved in a defined amount of acetone and the amount of active agent is determined via HPLC. The results are compared with each other, taking into account the balloon section areas.

SMILES	stability of crystal suspension [1]	solubility in water [2]	stability of crystal suspension at ratio 20:80 [3]	stability and flexibility of coating [4]
CCCCCCCC(=O)OCC(COC(=O)CCCCCCC)OC(=O)CCCCCCC [trioctanoylglycerol]	remained stable	practically insoluble	excellent stable	particularly stable and flexible coating
CCCCCCCCCC(=O)OCC(COC(=O)CCCCCCCCC)OC(=O)CCCCCCCCC [tridecanoylglycerol]	remained stable	practically insoluble	excellent stable	particularly stable and flexible coating
